No end group written: not given here.
Tests used:
[1] = tested on: inner membrane of rat liver mitochondria; assay: Mitochondrial swelling in isotonic media (ionophoric activity); format: biochemical; conditions: pH 7.4
Procedure: FIG. 1 Ionophoric activity of P1 in the inner membrane of rat liver mitochondria. The mitochondria at a concentration of 0.5 mg/ml of protein were incubated in the media 125 mM KNO3, 5 mM HEPES-tris, pH 7.4 (Panel A) and 125 mM NH4NO3, 5 mM HEPES-tris, pH 7.4 (Panel B), both media were supplemented with 2.5 μM rotenone and 1 μM oligomycin (RO), added just after the mitochondria. The peptide P1 was added at the following final concentrations: 1.8 μM of P1 (curves a); 0.36 μM of P1 (curves b); 0.18 μM of P1 (curves c); 0.18 μM of P1 plus 2.5 mM of succinate (curves d); 0.12 μM of valinomycin (curve e), and 2 μM of FCCP, (curve f). In Panel C, the permeability of the inner mitochondrial membrane induced by the peptide P1 was evaluated for the following cations: H^+, K^+, Na^+, and Tris^+. […]
The mitochondria were isolated and prepared as described above. […] The mitochondrial swelling was spectrophotometrically monitored at 540 nm (Turner Spectrophotometer, model SP-850, USA, modified with a magnetic mini-stirrer). The curves were recorded in a graphical recorder (Linseis model L250E, USA), scanned and then processed in the program Adobe Photoshop V5.0. […]

[2] = tested on: human red blood cells; assay: Hemolytic activity in human erythrocytes; format: cell-based; conditions: for Percentage of hemolysis, X ± SD: hematocryte 0.5%, 1 h room temperature
Procedure: FIG. 5 Effect of P1 in human red blood cells; Human red blood cells were resuspended to a hematocryte of 0.5% in the isotonic solutions indicated in materials and methods. The peptide P1 was added at different concentrations to the cellular suspensions and incubated for 1 hour at room temperature. The supernatants were obtained by centrifugation of the suspensions at 10000 rpm for 5 min at 4° C. (International Equipment Company IEC, Centra MP4R; rotor 851), the absorbance of the supernatants was registered at 415 nm with a spectrophotometer (BIORAD). The results were expressed as percentage of hemolysis relative to the maximum hemolysis (erythrocytes hemolysed in 0.01% Tween-20).
FIG. 6 The hemolysis caused by P1 in the erythrocytes decreases with an increase in the hematocryte; human red blood cells were resuspended at different hematocrytes: 0.5%, 2.5% and 10% in 150 mM NaCl, 5 mM KCl, 5 mM Glucose, 10 mM HEPES-tris, pH 7.4. Peptide P1 was added at different concentrations in the cellular suspension and incubated during 1 h at room temperature. The supernatants were obtained by centrifugation at 10000 rpm for 5 min at 4° C. and the absorbance at 415 nm was determined with a BIORAD spectrophotometer. The results were expressed as percentage of hemolysis relative to the maximum hemolysis (erythrocytes lysed in 0.01% Tween-20).
The hemolytic activity of peptide P1 was determined in heparinized human red blood cells from a volunteer (final concentration of heparin 20.4 U/ml), and washed three times in 150 mM NaCl, 9 mM Na2PO4, pH 7.3, at room temperature. The red blood cells were resuspended to an hematocryte of 0.5% in isotonic solutions 150 mM NaCl, 5 mM KCl, 5 mM Glucose, 10 mM HEPES-tris, pH 7.4; 155 mM KCl, 5 mM Glucose, 10 mM HEPES-tris, pH 7.4; 300 mM saccharose, 5 mM KCl, 5 mM Glucose, 10 mM HEPES-tris, pH 7.4; 150 mM polyethyleneglycol-1500 (PEG-1500), 5 mM KCl, 5 mM Glucose, 10 mM HEPES-tris, pH 7.4. […] The supernatants were recovered by centrifugation of the cellular suspension at 10000 rpm for 5 min at 4° C. and the absorbance at 415 nm was determined in a BIORAD spectrophotometer. The averages and standard deviations were calculated and the data were introduced to the program SigmaPlot V4.0 in order to generate the corresponding graphs (FIGS. 3 and 4).

[3] = Solubility in aqueous solutions; format: physicochemical
Source text: The peptides were synthesized by the method of solid phase synthesis (Merrifield B. 1963. Solid Phase Peptide Synthesis, Journal American Chemical Society. 85: 2149–2154; and Houghten R. A. 1985. General methods for the rapid solid phase synthesis of large numbers of peptides: specificity of antigen antibody interaction at the level of individual amino acids. Proc. Natl. Acad. Sci. USA. 82: 5131–5135.) under the methods of good manufacture practices (GMP). A resin p-methyl benzidrylamine (MBHA) (0.7 meq/g), t-boc amino acids (Bachem, USA) and the process of high-low cleavage were used in the synthesis. (Andreu D, Merrifield RB, Steiner H, Boman HG. 1983. Solid-phase synthesis of Cecropin A and Related Peptides. Proc. Natl. Acad. Sci USA 80: 6475–6479.). Once synthesized, the peptides were extracted with 10% acetic acid in water. The peptides were purified by high pressure liquid chromatography (HPLC), in a reverse phase column, and they were analyzed by means of mass spectrometry (Maldi-Tof). The peptides were lyophilized and kept in powder at 4° C. until its use.

[4] = tested on: Escherichia coli (ATCC 25922); conditions: ATCC 25922, 2 h, 7.1 μM
[5] = tested on: Staphylococcus aureus (ATCC 25923); conditions: ATCC 25923, 2 h, 7.1 μM
[6] = tested on: Streptococcus pneumoniae (ATCC 49619); conditions: ATCC 49619, 2 h, 7.1 μM
[7] = tested on: Bacteroides fragilis (ATCC 25285); conditions: ATCC 25285, 2 h, 7.1 μM
[8] = tested on: Clostridium perfringens (ATCC 13124); conditions: ATCC 13124, 2 h, 7.1 μM

Compound: CC(C)[C@@H]1NC(=O)[C@H](C)OC(=O)[C@@H](C(C)C)NC(=O)[C@@H](C(C)C)OC(=O)[C@H](C(C)C)NC(=O)[C@H](C)OC(=O)[C@@H](C(C)C)NC(=O)[C@@H](C(C)C)OC(=O)[C@H](C(C)C)NC(=O)[C@H](C)OC(=O)[C@@H](C(C)C)NC(=O)[C@@H](C(C)C)OC1=O [valinomycin]
- Rate of mitochondrial swelling (slope) ([1]; 0.12 μM valinomycin, medium 125 mM KNO3, 5 mM HEPES-tris, FIG. 1 Panel A curve e): 1.4

Compound: N#CC(C#N)=NNc1ccc(OC(F)(F)F)cc1 [FCCP, carbonyl-cyanide-p-trifluoromethoxy phenylhydrazone]
- Speed of mitochondrial swelling (slope) ([1]; 2 μM FCCP, medium 125 mM NH4NO3, 5 mM HEPES-tris, FIG. 1 Panel B curve f): 3.5

Compound: VAPIAKYLATALAKWALKQGFAKLKS-NH2 (C-terminus assumed) [P1]
- Percentage of hemolysis, X ± SD ([2]; 0.36 μM P1, isotonic medium KCl 150 mM): 17.25 ± 1.05%
- Percentage of hemolysis, X ± SD ([2]; 0.36 μM P1, isotonic medium NaCl 150 mM): 3.75 ± 0.05%
- Percentage of hemolysis, X ± SD ([2]; 0.36 μM P1, isotonic medium PEG-1500 150 mM): 0.25 ± 0.07%
- Percentage of hemolysis, X ± SD ([2]; 0.36 μM P1, isotonic medium Saccharose 150 mM): 57.5 ± 0.73%
- Permeability order of hemolytic activity by isotonic medium ([2]; 0.36 μM peptide, order disappears at 3.6 μM): saccharose>KCl>NaCl
- Percentage of hemolysis, X ± SD ([2]; 3.6 μM P1, isotonic medium KCl 150 mM): 64.25 ± 1.23%
- Percentage of hemolysis, X ± SD ([2]; 3.6 μM P1, isotonic medium NaCl 150 mM): 59.25 ± 1.15%
- Percentage of hemolysis, X ± SD ([2]; 3.6 μM P1, isotonic medium PEG-1500 150 mM): 2.75 ± 0.3%
- Percentage of hemolysis, X ± SD ([2]; 3.6 μM P1, isotonic medium Saccharose 150 mM): 75.5 ± 10.38%
- Hemolytic activity with increased hematocryte ([2]; hematocryte increased at 10%, NaCl medium): decreases dramatically
- Hemolytic activity in a physiological solution ([2]; hematocryte is high): insignificant
- Hemolytic activity (in words) ([2]; isotonic medium PEG-1500): does not show hemolytic activity
- Solubility in aqueous solutions [3]: highly soluble
- % of growth inhibition [4]: 100%
- % of growth inhibition [5]: 100%
- % of growth inhibition [6]: 100%
- % of growth inhibition [7]: 100%
- % of growth inhibition [8]: 100%
